Test results published in patent US20230375530A1, “HUMAN BLOOD-BRAIN BARRIER MODEL FOR IMMUNOLOGICAL STUDIES” (WISCONSIN ALUMNI RESEARCH FOUNDATION, priority 2020, published 2023).

Columns and labels:
Type in all cases: cell-based, human
CD31+ Passage 1 ECs = test: Dextran accumulation assay (fluid-phase endocytosis); details: 10 kDa dextran, 2 h, 37° C., CHIR vs DMSO
Protocol: A fixable, Alexa Fluor 488-conjugated dextran with an average molecular weight of […] (Invitrogen) was used as a tracer to estimate total fluid-phase endocytosis. Dextran was added at 10 μM to the medium of Passage 1 cultures. Plates were incubated on rotating platforms at 37° C. or 4° C. for 2 h. Medium was removed and cells were washed once with DPBS, and then incubated with Accutase for 10 min at 37° C. Cell suspensions were passed through 40 μm cell strainers into 4× volume of DMEM/F-12 and centrifuged for 5 min, 200×g. Cells were resuspended in MACS buffer and incubated with the CD31-APC antibody (Miltenyi Biotec) for 30 min at 4° C., protected from light. Cell suspensions were brought to a volume of 5 mL with MACS buffer and centrifuged at 4° C. for 5 min, 200×g. Pellets were resuspended in DPBS supplemented with 4% paraformaldehyde and incubated for 15 min at room temperature, protected from light. Cells were centrifuged for 5 min, 200×g. Pellets were resuspended in MACS buffer and analyzed on a BD FACSCalibur flow cytometer (BD Biosciences). FlowJo software was used to gate CD31^+ cells and quantify geometric mean fluorescence intensity and coefficient of variation (CV) of dextran.

[1] = test system: hPSC-derived Passage 1 and Passage 3 ECs; test: Western blotting of DMSO- or CHIR-treated ECs
Protocol: For extended culture, ECs were selectively dissociated and replated as previously described (Nishihara et al., 2020). Cells were incubated with Accutase until endothelial cells appeared round, typically 2-3 min at 37° C. The plate was tapped to release the ECs while SMLCs remained attached, and the EC-enriched cell suspension transferred to 4× volume of DMEM/F-12 and centrifuged for 5 min, 200×g. Cells were resuspended in hECSR medium and seeded on a new collagen IV-coated plate at approximately 3×10^4 cells/cm^2. hECSR medium was replaced every other day until confluent (typically 6 days). The selective dissociation and seeding described above was repeated, and hECSR medium was again replaced every other day until confluent (typically 6 days). We denote this time point “Passage 3.” In one experiment, these steps were repeated for another two passages. Except where indicated, CHIR 99021 or vehicle (DMSO) was included in the hECSR medium for the entire duration of culture.
To enrich samples from Passage 1 cultures for ECs, the Accutase-based selective dissociation method described above was employed. Dissociated cells were centrifuged for 5 min, 200×g, and resulting cell pellets were lysed in RIPA buffer (Rockland Immunochemicals, Pottstown, PA) supplemented with 1× Halt Protease Inhibitor Cocktail (Thermo Scientific). Passage 3 cells were lysed with the above buffer directly on plates. Lysates were centrifuged at 4° C. for 5 min, 14,000×g, and protein concentration in supernatants quantified using the Pierce BCA Protein Assay Kit (Thermo Scientific). Equal amounts of protein were diluted to equal volume with water, mixed with sample buffer, and heated at 95° C. for 5 min, except lysates intended for GLUT-1 Western blotting, which were not heated. Samples were resolved on 4-12% Tris-Glycine gels and transferred to nitrocellulose membranes. Membranes were blocked for 1 h in tris-buffered saline plus 0.1% Tween-20 (TBST) supplemented with 5% non-fat dry milk. Primary antibodies (see Table 6 for antibody information) diluted in TBST plus 5% non-fat dry milk were added to membranes and incubated overnight at 4° C. on a rocking platform. Membranes were washed five times with TBST. Secondary antibodies (see Table 6 for antibody information) diluted in TBST were added to membranes and incubated for 1 h at room temperature on a rocking platform, protected from light. Membranes were washed five times with TBST and imaged using an Odyssey 9120 (LI-COR, Lincoln, NE). Band intensities were quantified using Image Studio software (LI-COR).

Passage 3 ECs = test: Transendothelial electrical resistance and sodium fluorescein permeability; details: CHIR-treated vs DMSO-treated
Passage 1 ECs (WTC11) = test: EC proliferation (Ki67 immunocytochemistry, cell cycle analysis); details: CHIR vs DMSO
Protocol: Images were analyzed using FIJI (ImageJ) software. For epifluorescence images, 5 fields (20×) were analyzed per well, with 3-4 wells per treatment condition. For quantification of cell number, EC colonies were manually outlined, and the Analyze Particles function was used to estimate the number of nuclei within the EC colonies. Nuclei outside the EC colonies were manually counted. EC purity (% EC) was calculated as the number of nuclei within EC colonies relative to total nuclei. To estimate % GLUT-1^+ ECs, cells within the EC colonies with membrane-localized GLUT-1 immunoreactivity (e.g., arrowheads in FIG. 24B) were manually counted. To estimate % Ki67^+ ECs, cells within the EC colonies with at least one nuclear-localized Ki67 punctum were manually counted. For quantification of fluorescence intensity in epifluorescence images, EC colonies were manually outlined, and the Measure function was used to obtain the mean fluorescence intensity for each image channel (fluorophore). A cell-free area of the plate was similarly quantified for background subtraction. Following background subtraction, the mean fluorescence intensity of each protein of interest was normalized to the mean fluorescence intensity of Hoechst to correct for effects of cell density. For confocal images, 3-4 fields (100×) containing only VE-cadherin^+ ECs were analyzed per well, with 4 wells per treatment condition. […]

## Cc1c[nH]c(-c2cnc(NCCNc3ccc(C#N)cn3)nc2-c2ccc(Cl)cc2Cl)n1 [CHIR, CHIR 99021]
CD31+ Passage 1 ECs
  distribution of dextran intensities: broadening of the distribution of dextran intensities
  geometric mean dextran signal: did not change the geometric mean dextran signal
[1]; Passage 1 ECs
  PLVAP reduction in Western blots: not apparent
[1]; Passage 1 and Passage 3
  GLUT-1 and claudin-5 in Western blots: upregulation of GLUT-1 and claudin-5
[1]; Passage 1 and Passage 3 ECs
  LSR expression: strong increase in LSR expression
[1]; Passage 3 ECs, CHIR vs controls
  PLVAP in Western blots: robust downregulation of PLVAP
Passage 3 ECs
  transendothelial electrical resistance (TEER): elevated transendothelial electrical resistance
Passage 1 ECs (WTC11)
  EC proliferation: increased EC proliferation
